Values of other authors as cited in patent US7970581B2, “Methods of calculating differences of binding affinities between congeneric pairs of ligands by way of a displaced solvent functional” (The Trustees of Columbia University in the City of New York, priority 2007, dated 2011).

Biological target: factor Xa (Homo sapiens, UniProt P00742)
Conditions: experimental binding free energy of crystal structure ligand

factor Xa, sequence (P00742 235-488 limits assumed): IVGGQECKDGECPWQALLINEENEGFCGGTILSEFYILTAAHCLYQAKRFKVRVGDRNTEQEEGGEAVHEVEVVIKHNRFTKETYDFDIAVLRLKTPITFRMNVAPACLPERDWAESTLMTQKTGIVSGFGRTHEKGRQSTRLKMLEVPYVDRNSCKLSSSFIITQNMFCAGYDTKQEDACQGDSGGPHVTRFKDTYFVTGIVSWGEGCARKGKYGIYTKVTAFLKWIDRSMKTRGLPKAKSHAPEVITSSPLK
factor Xa, sequence (P00742 41-179 partner limits assumed): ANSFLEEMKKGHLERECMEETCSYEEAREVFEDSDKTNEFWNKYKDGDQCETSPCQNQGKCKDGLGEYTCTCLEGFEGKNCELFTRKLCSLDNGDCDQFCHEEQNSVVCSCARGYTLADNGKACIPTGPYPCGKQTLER

ΔGexp [kcal/mol]	SMILES
-15.22	COc1cc(Cl)cc(C(=O)Nc2ccc(Cl)cn2)c1NC(=O)c1scc(C/[N+](C)=C2\NCCO2)c1Cl [1MQ6:XLD]
-11.63	CC(C)N1CCC(NC(=O)c2cc3ccccc3n2-c2cc(-c3ccc(Cl)s3)on2)CC1 [2BOH:IIA]
-9.62	COc1cccc(Cn2c(C(=O)NC3CCN(C(C)C)CC3)cc3ccccc32)c1 [2BQ7:IID]
-10.57	COc1ccc(C(=O)NCC2CCN(c3ccncc3)CC2)cc1OCCc1cc(Cl)cc(Cl)c1 [2BMG:I1H]
-9.88	CCOC(=O)CO/N=C(\c1ccccn1)C1(c2ccc3c(c2)nc(CNc2ccc(C(=N)N)cc2)n3C)CC1 [1G2L:T87]
-12.28	CN1CCN(Cc2csc(C(=O)Nc3ccc(Cl)cc3C(=O)Nc3ccc(Cl)cc3)c2Cl)CC1 [1MQ5:XLC]
-11.63	CC(C)N1CCC(NC(=O)c2cc3ccccc3n2CC(=O)Nc2ccc(Cl)cc2)CC1 [2BQW:IIE]
-10.98	Cc1cc(C)cc(CNC(=O)c2cc3c(C)cccc3n2Cc2cccc(C(=N)N)c2)c1 [1LQD:CMI]
-12.12	N=C(N)c1ccc(CN2CCN(S(=O)(=O)c3cc4ccc(Cl)cc4s3)CC2=O)cc1 [1NFY:RTR]
-10.09	Cc1nc2ccccc2n1Cc1ccc2c(c1)nc(CNc1ccc(C(=N)N)cc1)n2C [1G2M:R11]
